PubChem BioAssay (NCI)
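Step 1: Grow cells in 96-well plates. Step 2: Expose to compound for 48 hours at 5 concentrations. Step 3: Interpolate endpoints linearly; if unreached, use highest concentration. Abbreviation: GI50, concentration required for 50% inhibition of growth. TGI: concentration producing complete growth inhibition.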

What was measured:
Experiment in all cases: DTP human tumour cell line panel, 48 h
[1] = system: SK-MEL-2 melanoma
[2] = system: LOX IMVI melanoma
[3] = system: OVCAR-4 ovarian
[4] = system: MDA-MB-231 breast
[5] = system: SK-MEL-5 melanoma
[6] = system: RPMI-8226 leukemia
[7] = system: MALME-3M melanoma
[8] = system: HCT-15 colon
[9] = system: M14 melanoma
[10] = system: IGROV1 ovarian
[11] = system: HT29 colon
[12] = system: MOLT-4 leukemia
[13] = system: ACHN renal
[14] = system: HCC-2998 colon
[15] = system: MDA-MB-435
[16] = system: SNB-19 CNS
[17] = system: SR leukemia
[18] = system: CCRF-CEM leukemia
[19] = system: A549 NSCLC
[20] = system: SNB-75 CNS
[21] = system: EKVX NSCLC
[22] = system: SF-268 CNS
[23] = system: PC-3 prostate
[24] = system: OVCAR-8 ovarian
[25] = system: UACC-257 melanoma
[26] = system: COLO 205 colon
[27] = system: SK-OV-3 ovarian
[28] = system: HL-60(TB) leukemia
[29] = system: SK-MEL-28 melanoma
[30] = system: K-562 leukemia
[31] = system: NCI-H522 lung
[32] = system: TK-10 renal
[33] = system: HS 578T breast
[34] = system: MCF7 breast
[35] = system: NCI/ADR-RES ovarian
[36] = system: CAKI-1 renal
[37] = system: U251 CNS
[38] = system: A498 renal
[39] = system: SW-620 colon
[40] = system: BT-549 breast
[41] = system: HOP-92 NSCLC
[42] = system: DU-145 prostate
[43] = system: SF-295 CNS

Q: Which results are given for `O=C(Nc1cc(C(F)(F)F)cc(C(F)(F)F)c1)Nc1ccc2oc(=O)ccc2c1`?
A: GI50 [1]: 1680 nM; TGI [1]: 3410 nM; GI50 [2]: 1600 nM; TGI [2]: 4370 nM; GI50 [3]: 1250 nM; TGI [3]: > 100000 nM; GI50 [4]: 2770 nM; TGI [4]: > 100000 nM; GI50 [5]: 1230 nM; TGI [5]: 2510 nM; GI50 [6]: 426 nM; TGI [6]: 2360 nM; GI50 [7]: 1870 nM; TGI [7]: 5080 nM; GI50 [8]: 2110 nM; TGI [8]: > 100000 nM; GI50 [9]: 2710 nM; TGI [9]: > 100000 nM; GI50 [10]: 1510 nM; TGI [10]: > 100000 nM; GI50 [11]: 2470 nM; TGI [11]: > 100000 nM; GI50 [12]: 758 nM; TGI [12]: > 100000 nM; GI50 [13]: 1290 nM; TGI [13]: > 100000 nM; GI50 [14]: 2770 nM; TGI [14]: > 100000 nM; GI50 [15]: 2970 nM; TGI [15]: > 100000 nM; GI50 [16]: 1230 nM; TGI [16]: > 100000 nM; GI50 [17]: 997 nM; TGI [17]: 5090 nM; GI50 [18]: 1220 nM; TGI [18]: > 100000 nM; GI50 [19]: 2140 nM; TGI [19]: > 100000 nM; GI50 [20]: 1930 nM; TGI [20]: 6590 nM; GI50 [21]: 3920 nM; TGI [21]: > 100000 nM; GI50 [22]: 2950 nM; TGI [22]: > 100000 nM; GI50 [23]: 753 nM; TGI [23]: > 100000 nM; GI50 [24]: 1960 nM; TGI [24]: > 100000 nM; GI50 [25]: 2020 nM; TGI [25]: 6130 nM; GI50 [26]: 1750 nM; TGI [26]: 3460 nM; GI50 [27]: 2320 nM; TGI [27]: 5700 nM; GI50 [28]: 705 nM; TGI [28]: 5740 nM; GI50 [29]: 2790 nM; TGI [29]: > 100000 nM; GI50 [30]: 782 nM; TGI [30]: > 100000 nM; GI50 [31]: 1400 nM; TGI [31]: 5000 nM; GI50 [32]: 2990 nM; TGI [32]: > 100000 nM; GI50 [33]: 2440 nM; TGI [33]: 6360 nM; GI50 [34]: 2880 nM; TGI [34]: > 100000 nM; GI50 [35]: 2010 nM; TGI [35]: > 100000 nM; GI50 [36]: 1250 nM; TGI [36]: 4860 nM; GI50 [37]: 1290 nM; TGI [37]: > 100000 nM; GI50 [38]: 1670 nM; TGI [38]: 4970 nM; GI50 [39]: 3020 nM; TGI [39]: > 100000 nM; GI50 [40]: 2360 nM; TGI [40]: 6560 nM; GI50 [41]: 1410 nM; TGI [41]: 4890 nM; GI50 [42]: 2000 nM; TGI [42]: > 100000 nM; GI50 [43]: 1440 nM; TGI [43]: > 100000 nM
